Laboratory results published in patent US20080267882A1, “Imaging compounds, methods of making imaging compounds, methods of imaging, therapeutic compounds, methods of making therapeutic compounds, and methods of therapy” (Stanford University, priority 2007, published 2008).
“And” between values parts separate entries of the source, which are not always exact repeats. Identical values can stand only once.

Key:
integrin αvβ3 = target: T1, integrin αvβ3 (Homo sapiens, UniProt P05106+P06756); assay: competitive cell binding assay using ^125I-echistatin on U87MG cells; conditions: Example 4; n=3; read-out: IC50 (inhibition of ^125I-echistatin binding to U87MG cells)
T1 construct: evaluated using U87MG cells (integrin αvβ3-positive); endogenous in cells; host or cells: U87MG human glioblastoma cells (ATCC)
Procedure: Experiments were performed on U87MG human glioblastoma cells with triplicate samples as previously reported.
In vitro integrin αvβ3-binding affinities and specificities of RGD4, PRGD4 and FPRGD4 were assessed via displacement cell binding assays using ^125I-echistatin as the integrin αvβ3-specific radioligand. Experiments were performed on U87MG human glioblastoma cells by the method previously described (J Nucl Med. 2005;46:1707-1718 J Nucl Med. 2006;47:1172-1180, which is incorporated herein by reference for the corresponding discussion). […] Experiments were performed with triplicate samples.
Experiments were performed with triplicate samples.
In vitro integrin-binding affinity and specificity of RGD multimers and DOTA-RGD multimers were assessed via competitive cell binding assays using ^125I-echistatin as the integrin αvβ3-specific radioligand (J Nucl Med. 2005;46:1707-1718, which is incorporated herein by reference for the corresponding discussion). […] Experiments were performed with triplicate samples.

[1] = system: MDA-MB-435 tumor-bearing mice; assay: biodistribution of ^3H-PTX and ^3H-RGD2−PTX in MDA-MB-435 tumor-bearing mice; type: in vivo, mouse
Procedure: All animal experiments were performed in compliance with the guidelines for the care and use of research animals established by the Stanford University's Animal Studies Committee. Female athymic nude mice (nu/nu) were obtained from Harlan (Indianapolis, Ind.) at 6-8 weeks of age and were kept under sterile conditions. The MDA-MB-435 cells were harvested and suspended in sterile PBS at a concentration of 5×10^7 cells/mL. Viable cells (5×10^6) in PBS (100 μL) were injected orthotopically in the right mammary fat pad. […] Tumor growth was followed by caliper measurements of perpendicular measures of the tumor. The tumor volume was estimated by the formula: tumor volume=a×(b^2)/2, where a and b are the tumor length and width respectively in mm.
The animals were euthanized at 4, 24 and 48 h post injection and major organs and tissues were collected correspondingly. Approximately 100 mg of the tissue was added to glass scintillation vials containing 1 mL of tissue solubilizer SoluEne®-350 (Perkin-Elmer, Waltham, Mass.). These samples were digested at 55° C. for overnight followed by bleaching to obtain the decolorized samples. Chemiluminescence was reduced by the addition of glacial acetic acid. Hionic-Fluor liquid scintillation cocktail (Perkin-Elmer) was added to all samples, which were then counted with a Tri-Carb 2800TR liquid scintillation Analyzer (Perkin-Elmer).

in vivo = conditions: mouse, iv, 3.7 MBq, total radioactivity, U87MG tumor uptake
Procedure: PET scans and image analysis were performed using a microPET R4 rodent model scanner (Siemens Medical Solutions) as previously reported (J Nucl Med 2006;47:113-121 and J Nucl Med 2005;46:1707-1718, each of which is incorporated herein by reference for the corresponding discussion). Each mouse was tail-vein injected with about 3.7 MBq (100 μCi) of ^18F-FPRGD2 under isoflurane anesthesia. The 30-min dynamic scan (1×30 s, 4×1 min, 1×1.5 min, 4×2 min, 1×2.5 min, 4×3 min, total of 15 frames) was started 1 min after injection. Five min static PET images were also acquired at 1 h and 2 h post-injection (p.i.). The images were reconstructed by a 2-dimensional ordered-subsets expectation maximum (OSEM) algorithm and no correction was applied for attenuation or scatter.
PET scans and image analysis were performed using a microPET R4 rodent model scanner (Siemens Medical Solutions) as previously reported. For U87MG tumor model, mice (n=3) were tail-vein injected with about 3.7 MBq (100 μCi) of ^18F-FPRGD4 under isoflurane anesthesia and then subjected to a 30-min dynamic scan (1×30 s, 4×1 min, 1×1.5 min, 4×2 min, 1×2.5 min, 4×3 min, total of 15 frames) starting from 1 min p.i. Five min static PET images were also acquired at 1, 2, and 3 h p.i. The images were reconstructed by 2-dimensional ordered-subsets expectation maximum (OSEM) algorithm. No attenuation or scatter correction was applied. […] The 5-min static PET scans was then acquired at 30 min and 1 h p.i. Multiple time point static scans were also obtained for orthotopic MDA-MB-435, c-neu oncomouse, and subcutaneous DU145 tumor models after tail-vein injected with 3.7 MBq of ^18F-FPRGD4.
For each microPET scan, regions of interest (ROIs) were drawn over the tumor, normal tissue, and major organs by using vendor software (ASI Pro 5.2.4.0) on decay-corrected whole-body coronal images. The maximum radioactivity concentration (accumulation) within a tumor or an organ was obtained from mean pixel values within the multiple ROI volume, which were converted to counts/mL/min by using a conversion factor. Assuming a tissue density of 1 g/mL, the ROIs were converted to counts/g/min and then divided by the administered activity to obtain an imaging ROI-derived % ID/g. […]
PET scans and image analysis were performed using a microPET R4 rodent model scanner (Siemens Medical Solutions) as previously reported (J Nucl Med. 2005;46:1707-1718 and J Nucl Med. 2006;47:113-121, each of which is incorporated herein by reference for the corresponding discussion). About 9.3 MBq of ^64Cu-DOTA-RGD multimer was intravenously injected into each mouse under isoflurane anesthesia. Five minute static scans were acquired at 30 min, 1 h, 2 h, 6 h, and 20 h p.i. The images were reconstructed by a 2-dimensional ordered-subsets expectation maximum (OSEM) algorithm and no correction was applied for attenuation and scatter. For each microPET scan, regions of interest (ROIs) were drawn over the tumor, normal tissue, and major organs on decay-corrected whole-body coronal images. The radioactivity concentration (accumulation) within a tumor was obtained from the maximum value within the multiple ROIs and then converted to % ID/g.
PET scans and image analysis were performed using a microPET R4 rodent model scanner (Siemens Medical Solutions) as previously reported (J Nucl Med. 2006;47:113-21 and J Nucl Med. 2005;46:1707-18, which is incorporated herein by reference for the corresponding discussion). […] The 60-min dynamic scan (5×1 min, 10×3 min, 5×5 min, total of 20 frames) was started 1 min after injection. A 2 h time point static scan was also acquired after the 60 min dynamic scan. Five min static PET images were also acquired separately at 30 min, 1 h and 2 h time points post-injection (p.i.) for another set of tumor-bearing mice (n=3/tracer). The images were reconstructed by a 2-dimensional ordered-subsets expectation maximum (OSEM) algorithm and no correction was necessary for attenuation or scatter correction. […]

N=C(N)NCCC[C@@H]1NC(=O)[C@H](CCCCNC(=O)CC[C@H](NC(=O)CC[C@H](NC(=O)CC[C@H](NC(=O)CN2CCN(CC(=O)O)CCN(CC(=O)O)CCN(CC(=O)O)CC2)C(=O)N[C@@H](CCC(=O)N[C@@H](CCC(=O)NCCCC[C@@H]2NC(=O)[C@@H](Cc3ccc(O)cc3)NC(=O)[C@H](CC(=O)O)NC(=O)CNC(=O)[C@H](CCCNC(=N)N)NC2=O)C(=O)NCCCC[C@@H]2NC(=O)[C@@H](Cc3ccc(O)cc3)NC(=O)[C@H](CC(=O)O)NC(=O)CNC(=O)[C@H](CCCNC(=N)N)NC2=O)C(=O)N[C@@H](CCC(=O)NCCCC[C@@H]2NC(=O)[C@@H](Cc3ccc(O)cc3)NC(=O)[C@H](CC(=O)O)NC(=O)CNC(=O)[C@H](CCCNC(=N)N)NC2=O)C(=O)NCCCC[C@@H]2NC(=O)[C@@H](Cc3ccc(O)cc3)NC(=O)[C@H](CC(=O)O)NC(=O)CNC(=O)[C@H](CCCNC(=N)N)NC2=O)C(=O)N[C@@H](CCC(=O)NCCCC[C@@H]2NC(=O)[C@@H](Cc3ccc(O)cc3)NC(=O)[C@H](CC(=O)O)NC(=O)CNC(=O)[C@H](CCCNC(=N)N)NC2=O)C(=O)NCCCC[C@@H]2NC(=O)[C@@H](Cc3ccc(O)cc3)NC(=O)[C@H](CC(=O)O)NC(=O)CNC(=O)[C@H](CCCNC(=N)N)NC2=O)C(=O)NCCCC[C@@H]2NC(=O)[C@@H](Cc3ccc(O)cc3)NC(=O)[C@H](CC(=O)O)NC(=O)CNC(=O)[C@H](CCCNC(=N)N)NC2=O)NC(=O)[C@@H](Cc2ccc(O)cc2)NC(=O)[C@H](CC(=O)O)NC(=O)CNC1=O [DOTA-RGD octamer]
IC50 (integrin αvβ3): 11 nM

N=C(N)NCCC[C@@H]1NC(=O)[C@H](CCCCNC(=O)CC[C@H](NC(=O)CC[C@H](NC(=O)CN2CCN(CC(=O)O)CCN(CC(=O)O)CCN(CC(=O)O)CC2)C(=O)N[C@@H](CCC(=O)NCCCC[C@@H]2NC(=O)[C@@H](Cc3ccc(O)cc3)NC(=O)[C@H](CC(=O)O)NC(=O)CNC(=O)[C@H](CCCNC(=N)N)NC2=O)C(=O)NCCCC[C@@H]2NC(=O)[C@@H](Cc3ccc(O)cc3)NC(=O)[C@H](CC(=O)O)NC(=O)CNC(=O)[C@H](CCCNC(=N)N)NC2=O)C(=O)NCCCC[C@@H]2NC(=O)[C@@H](Cc3ccc(O)cc3)NC(=O)[C@H](CC(=O)O)NC(=O)CNC(=O)[C@H](CCCNC(=N)N)NC2=O)NC(=O)[C@@H](Cc2ccc(O)cc2)NC(=O)[C@H](CC(=O)O)NC(=O)CNC1=O [DOTA-RGD tetramer]
IC50 (integrin αvβ3): 28 nM

CC(=O)O[C@H]1C(=O)[C@@]2(C)[C@H]([C@H](OC(=O)c3ccccc3)[C@]3(O)C[C@H](OC(=O)[C@H](O)[C@@H](NC(=O)c4ccccc4)c4ccccc4)C(C)=C1C3(C)C)[C@]1(OC(C)=O)CO[C@@H]1C[C@@H]2O [^3H-PTX, reference compound]
tissue concentration, Blood ([1]; 4 h): 67.1 ± 9.8 ng/g
tissue concentration, Intestine ([1]; 4 h): 274.1 ± 110.1 ng/g
tissue concentration, Kidney ([1]; 4 h): 339.6 ± 67.6 ng/g
tissue concentration, Liver ([1]; 4 h): 2389.3 ± 408.8 ng/g
tissue concentration, Lung ([1]; 4 h): 329.2 ± 18.2 ng/g
tissue concentration, MDA-MB-435 tumor ([1]; 4 h): 239.0 ± 56.2 ng/g
tissue concentration, Muscle ([1]; 4 h): 257.3 ± 32.2 ng/g
tissue concentration, Skin ([1]; 4 h): 135.1 ± 23.5 ng/g
tissue concentration, Spleen ([1]; 4 h): 365.5 ± 118.5 ng/g
tissue concentration, Stomach ([1]; 4 h): 180.7 ± 15.7 ng/g
tissue concentration, Blood ([1]; 24 h): 42.7 ± 14.7 ng/g
tissue concentration, Intestine ([1]; 24 h): 14.4 ± 2.5 ng/g
tissue concentration, Kidney ([1]; 24 h): 38.0 ± 13.3 ng/g
tissue concentration, Liver ([1]; 24 h): 123.4 ± 12.2 ng/g
tissue concentration, Lung ([1]; 24 h): 35.2 ± 5.4 ng/g
tissue concentration, MDA-MB-435 tumor ([1]; 24 h): 85.6 ± 15.2 ng/g
tissue concentration, Muscle ([1]; 24 h): 41.1 ± 17.2 ng/g
tissue concentration, Skin ([1]; 24 h): 24.6 ± 3.2 ng/g
tissue concentration, Spleen ([1]; 24 h): 51.6 ± 7.6 ng/g
tissue concentration, Stomach ([1]; 24 h): 24.4 ± 4.7 ng/g
decrease of concentration in the tumor ([1]; 24 h compared with 4 h): around 3 fold
drop of concentration in kidneys ([1]; 24 h compared with 4 h): 9 fold
drop of concentration in the liver ([1]; 24 h compared with 4 h): 20 fold
tissue concentration, Blood ([1]; 48 h): 35.0 ± 1.5 ng/g
tissue concentration, Intestine ([1]; 48 h): 12.8 ± 7.0 ng/g
tissue concentration, Kidney ([1]; 48 h): 35.7 ± 2.0 ng/g
tissue concentration, Liver ([1]; 48 h): 132.6 ± 31.9 ng/g
tissue concentration, Lung ([1]; 48 h): 47.9 ± 8.8 ng/g
tissue concentration, MDA-MB-435 tumor ([1]; 48 h): 45.8 ± 1.69 ng/g and 45.8 ± 1.7 ng/g
tissue concentration, Muscle ([1]; 48 h): 35.4 ± 10.7 ng/g
tissue concentration, Skin ([1]; 48 h): 25.4 ± 9.3 ng/g
tissue concentration, Spleen ([1]; 48 h): 36.4 ± 8.4 ng/g
tissue concentration, Stomach ([1]; 48 h): 17.2 ± 4.0 ng/g
decrease of concentration in the tumor ([1]; 48 h compared with 4 h): 5.2 fold

N=C(N)NCCC[C@@H]1NC(=O)[C@H](CCCCNC(=O)CC[C@H](NC(=O)CC[C@H](NC(=S)Nc2ccc(C[C@H]3CN(CC(=O)O)CCN(CC(=O)O)CCN3CC(=O)O)cc2)C(=O)N[C@@H](CCC(=O)NCCCC[C@@H]2NC(=O)[C@@H](Cc3ccc(O)cc3)NC(=O)[C@H](CC(=O)O)NC(=O)CNC(=O)[C@H](CCCNC(=N)N)NC2=O)C(=O)NCCCC[C@@H]2NC(=O)[C@@H](Cc3ccc(O)cc3)NC(=O)[C@H](CC(=O)O)NC(=O)CNC(=O)[C@H](CCCNC(=N)N)NC2=O)C(=O)NCCCC[C@@H]2NC(=O)[C@@H](Cc3ccc(O)cc3)NC(=O)[C@H](CC(=O)O)NC(=O)CNC(=O)[C@H](CCCNC(=N)N)NC2=O)NC(=O)[C@@H](Cc2ccc(O)cc2)NC(=O)[C@H](CC(=O)O)NC(=O)CNC1=O [^68Ga-NOTA-RGD4, metal not drawn]
tissue uptake at 0.5 h (in vivo; athymic nude): 3.4 ± 0.1 %ID/g
tissue uptake at 1 h (in vivo; athymic nude): 2.8 ± 0.1 %ID/g
tissue uptake at 2 h (in vivo; athymic nude): 2 ± 0.2 %ID/g
tissue uptake at 5 min (in vivo; nude): 4.9 %ID/g
tissue uptake at 0.25 h (in vivo; nude): 4.08 %ID/g
tissue uptake at 0.5 h (in vivo; nude): 3.48 %ID/g
tissue uptake at 1 h (in vivo; nude): 2.86 %ID/g
tissue uptake at 2 h (in vivo; nude): 2.13 %ID/g
